pIC50: −log10 of the molar value. Where a SMILES comes first, the peptide text is derived from it. Bridges are numbered along the chain shown (N, C = ends). [ ]: non-standard residue; d: D form. The star is where a group is joined. Bip = N[C@@H](Cc1ccc(-c2ccccc2)cc1)C(=O)O; dNMeaIle = CC[C@H](C)[C@@H](NC)C(=O)O; NMe2Val = CC(C)[C@@H](C(=O)*)N(C)C; NMeLys(Me) = CNCCCC[C@H](NC)C(=O)O; NMeI = CC[C@H](C)[C@H](NC)C(=O)O; NMeT = CN[C@H](C(=O)O)[C@@H](C)O; 2Pal = N[C@@H](Cc1ccccn1)C(=O)O; 3Pal = N[C@@H](Cc1cccnc1)C(=O)O; 4Pal = N[C@@H](Cc1ccncc1)C(=O)O; NMeL = CN[C@@H](CC(C)C)C(=O)O; NMeOrn = CN[C@@H](CCCN)C(=O)O; dNMeOrn = CN[C@H](CCCN)C(=O)O; dHiv = CC(C)[C@@H](O)C(=O)O; NMeS = CN[C@@H](CO)C(=O)O; NMeA = CN[C@@H](C)C(=O)O; dNMeA = CN[C@H](C)C(=O)O
System: A549
Test: Cytotoxicity against human A549 cells assessed as cell growth inhibition incubated for 72 hrs by MTS assay
Format: functional, cell-based
Settings: A549, 72 h

SMILES	pIC50
CC[C@H](C)[C@H]1C(=O)N[C@@H](C)C(=O)N(C)[C@@H](CC(C)C)C(=O)N[C@@H](Cc2ccc(OC)cc2)C(=O)N(C)CCCC[C@H](N(C)C(=O)[C@H](CC(C)C)NC(=O)[C@H](C)N(C)C(=O)[C@H](OC(=O)[C@H](C(C)C)N(C)C)C(C)C)C(=O)N(C)[C@@H](C)C(=O)N1C (NMe2Val-[dHiv][NMeA]L[NMeLys(Me)][NMeA][NMeI]A[NMeL]Y(Me); lactam 4-C)	5.47
CC[C@H](C)[C@@H]1NC(=O)[C@H](C)N(C)C(=O)[C@@H](N(C)C(=O)[C@H](CC(C)C)N(C)C(=O)[C@H](C)N(C)C(=O)[C@H](OC(=O)[C@H](C(C)C)N(C)C)C(C)C)CCCCN(C)C(=O)[C@H](Cc2ccc(OC)cc2)NC(=O)[C@H](CC(C)C)N(C)C(=O)[C@H](C)NC1=O (NMe2Val-[dHiv][NMeA][NMeL][NMeLys(Me)][NMeA]IA[NMeL]Y(Me); lactam 4-C)	< 5.00
CC[C@H](C)[C@H]1C(=O)N[C@@H](C)C(=O)N(C)[C@@H](CC(C)C)C(=O)N[C@@H](Cc2ccccn2)C(=O)N(C)CCCC[C@H](N(C)C(=O)[C@H](CC(C)C)N(C)C(=O)[C@H](C)N(C)C(=O)[C@H](OC(=O)[C@H](C(C)C)N(C)C)C(C)C)C(=O)N(C)[C@@H](C)C(=O)N1C (NMe2Val-[dHiv][NMeA][NMeL][NMeLys(Me)][NMeA][NMeI]A[NMeL][2Pal]; lactam 4-C)	< 5.00
CC[C@H](C)[C@H]1C(=O)N[C@@H](C)C(=O)N(C)[C@@H](CC(C)C)C(=O)N[C@@H](Cc2cccnc2)C(=O)N(C)CCCC[C@H](N(C)C(=O)[C@H](CC(C)C)N(C)C(=O)[C@H](C)N(C)C(=O)[C@H](OC(=O)[C@H](C(C)C)N(C)C)C(C)C)C(=O)N(C)[C@@H](C)C(=O)N1C (NMe2Val-[dHiv][NMeA][NMeL][NMeLys(Me)][NMeA][NMeI]A[NMeL][3Pal]; lactam 4-C)	< 5.00
CC[C@H](C)[C@H]1C(=O)N[C@@H](C)C(=O)N(C)[C@@H](CC(C)C)C(=O)N[C@@H](Cc2ccncc2)C(=O)N(C)CCCC[C@H](N(C)C(=O)[C@H](CC(C)C)N(C)C(=O)[C@H](C)N(C)C(=O)[C@H](OC(=O)[C@H](C(C)C)N(C)C)C(C)C)C(=O)N(C)[C@@H](C)C(=O)N1C (NMe2Val-[dHiv][NMeA][NMeL][NMeLys(Me)][NMeA][NMeI]A[NMeL][4Pal]; lactam 4-C)	< 5.00
CC[C@H](C)[C@H]1C(=O)N[C@@H](C)C(=O)N(C)[C@@H](CC(C)C)C(=O)N[C@H](Cc2ccc(OC)cc2)C(=O)N(C)CCCC[C@H](N(C)C(=O)[C@H](CC(C)C)N(C)C(=O)[C@H](C)N(C)C(=O)[C@H](OC(=O)[C@H](C(C)C)N(C)C)C(C)C)C(=O)N(C)[C@@H](C)C(=O)N1C (NMe2Val-[dHiv][NMeA][NMeL][NMeLys(Me)][NMeA][NMeI]A[NMeL][dY](Me); lactam 4-C)	< 5.00
CC[C@H](C)[C@H]1C(=O)N[C@H](C)C(=O)N(C)[C@@H](CC(C)C)C(=O)N[C@@H](Cc2ccc(OC)cc2)C(=O)N(C)CCCC[C@H](N(C)C(=O)[C@H](CC(C)C)N(C)C(=O)[C@H](C)N(C)C(=O)[C@H](OC(=O)[C@H](C(C)C)N(C)C)C(C)C)C(=O)N(C)[C@@H](C)C(=O)N1C (NMe2Val-[dHiv][NMeA][NMeL][NMeLys(Me)][NMeA][NMeI][dA][NMeL]Y(Me); lactam 4-C)	< 5.00
CC[C@H](C)[C@@H]1C(=O)N[C@@H](C)C(=O)N(C)[C@@H](CC(C)C)C(=O)N[C@@H](Cc2ccc(OC)cc2)C(=O)N(C)CCCC[C@H](N(C)C(=O)[C@H](CC(C)C)N(C)C(=O)[C@H](C)N(C)C(=O)[C@H](OC(=O)[C@H](C(C)C)N(C)C)C(C)C)C(=O)N(C)[C@@H](C)C(=O)N1C (NMe2Val-[dHiv][NMeA][NMeL][NMeLys(Me)][NMeA][dNMeaIle]A[NMeL]Y(Me); lactam 4-C)	< 5.00
CC[C@H](C)[C@H]1C(=O)N[C@@H](C)C(=O)N(C)[C@@H](CC(C)C)C(=O)N[C@@H](Cc2ccc(OC)cc2)C(=O)N(C)CCCC[C@H](N(C)C(=O)[C@H](CC(C)C)N(C)C(=O)[C@H](C)N(C)C(=O)[C@H](OC(=O)[C@H](C(C)C)N(C)C)C(C)C)C(=O)N(C)[C@H](C)C(=O)N1C (NMe2Val-[dHiv][NMeA][NMeL][NMeLys(Me)][dNMeA][NMeI]A[NMeL]Y(Me); lactam 4-C)	< 5.00
CC[C@H](C)[C@H]1C(=O)N[C@@H](C)C(=O)N(C)[C@@H](CC(C)C)C(=O)N[C@@H](Cc2ccc(OC)cc2)C(=O)NCCC[C@H](N(C)C(=O)[C@H](CC(C)C)N(C)C(=O)[C@H](C)N(C)C(=O)[C@H](OC(=O)[C@H](C(C)C)N(C)C)C(C)C)C(=O)N(C)[C@@H](C)C(=O)N1C (NMe2Val-[dHiv][NMeA][NMeL][NMeOrn][NMeA][NMeI]A[NMeL]Y(Me); lactam 4-C)	< 5.00
CC[C@H](C)[C@H]1C(=O)N[C@@H](C)C(=O)N(C)[C@@H](CC(C)C)C(=O)N[C@@H](Cc2ccc(OC)cc2)C(=O)NCCC[C@@H](N(C)C(=O)[C@H](CC(C)C)N(C)C(=O)[C@H](C)N(C)C(=O)[C@H](OC(=O)[C@H](C(C)C)N(C)C)C(C)C)C(=O)N(C)[C@@H](C)C(=O)N1C (NMe2Val-[dHiv][NMeA][NMeL][dNMeOrn][NMeA][NMeI]A[NMeL]Y(Me); lactam 4-C)	< 5.00
CC[C@H](C)[C@H]1C(=O)N[C@@H](C)C(=O)N(C)[C@@H](CC(C)C)C(=O)N[C@@H](Cc2ccc(-c3ccccc3)cc2)C(=O)N(C)[C@H](C)C(=O)O[C@H](C)[C@H](N(C)C(=O)[C@H](CC(C)C)N(C)C(=O)[C@H](COC)N(C)C(=O)[C@H](OC(=O)[C@H](C(C)C)N(C)C)C(C)C)C(=O)N(C)[C@@H](COC)C(=O)N1C (NMe2Val-[dHiv][NMeS](Me)[NMeL][NMeT][NMeS](Me)[NMeI]A[NMeL][Bip][dNMeA]; ester 4-C)	9.96
